Assays:
Format in all cases: in vivo
[1] = test system: Echinochloa crus-galli var. formosensis; assay: Test Example 2: herbicidal effect test by application during growth period of paddy rice; conditions: Echinochloa crus-galli; 120 g per 10 ares; applied seven days after sowing, flooded pots; 14 days after application; read-out: weed inhibition rate
How it was run: (§1)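 Paddy soil in flooded pots (water depth about 3 cm) was sown with weed seeds and kept in a glass greenhouse. Seven days after sowing, a diluted emulsifiable concentrate was applied by dropper at 120 g active ingredient per 10 ares. Weed inhibition was evaluated 14 days after application, in duplicate.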

Scirpus juncoides [2] = assay: as above; conditions: Schoenoplectiella juncoides; 120 g per 10 ares; applied seven days after sowing, flooded pots; 14 days after application; read-out: weed inhibition rate
How it was run: as §1

Digitaria ciliaris [3] = assay: Test Example 7: herbicidal effect test by soil application in upland field (low dose); conditions: Digitaria ciliaris, 7.5 g per 10 ares, sprayed one day after sowing, 14 days after application, read-out: weed inhibition rate
How it was run: (§2)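 Upland alluvial loam pots, seeds mixed into top 1 cm of soil; one day after sowing, diluted emulsifiable concentrate sprayed on soil at 100 L/10 a, giving 7.5 g active ingredient/10 a. Duplicate pots; weed inhibition rate (%) scored 14 days after application.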

Echinochloa crus-galli [4] = assay: as above; conditions: Echinochloa crus-galli, 7.5 g per 10 ares, sprayed one day after sowing, 14 days after application, read-out: weed inhibition rate
How it was run: as §2

Digitaria ciliaris [5] = assay: Test Example 3: herbicidal effect test by soil application in upland field; conditions: Digitaria ciliaris, 120 g per 10 ares, sprayed one day after sowing, 14 days after application, read-out: weed inhibition rate
How it was run: (§3)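 Weed inhibition (%) was assessed 14 days after treatment, in duplicate per concentration group. Seeds had been mixed into the upper 1 cm of upland alluvial loam, and the soil surface was sprayed one day later with the diluted emulsifiable concentrate at 120 g active ingredient per 10 ares.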

Echinochloa crus-galli [6] = assay: as above; conditions: Echinochloa crus-galli, 120 g per 10 ares, sprayed one day after sowing, 14 days after application, read-out: weed inhibition rate
How it was run: as §3

Echinochloa crus-galli [7] = assay: Test Example 4: herbicidal effect test by stem and leaf treatment in upland field; conditions: Echinochloa crus-galli; 120 g per 10 ares; sprayed seven days after sowing, upland soil; 14 days after application; read-out: weed inhibition rate
Digitaria ciliaris [8] = assay: Test Example 8: herbicidal effect test by stem and leaf treatment in upland field (low dose); conditions: Digitaria ciliaris; 7.5 g per 10 ares; sprayed seven days after sowing, upland soil; 14 days after application; read-out: weed inhibition rate
Echinochloa crus-galli [9] = assay: as above; conditions: Echinochloa crus-galli; 7.5 g per 10 ares; sprayed seven days after sowing, upland soil; 14 days after application; read-out: weed inhibition rate
[10] = test system: Echinochloa crus-galli var. formosensis; assay: Test Example 1: herbicidal effect test by soil application in paddy rice; conditions: Echinochloa crus-galli, soil, 336 h; 120 g active ingredient per 10 ares; applied immediately after sowing, flooded pots; 14 days after application; read-out: weed inhibition rate
How it was run: (§4)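 Pre-emergence paddy treatment: diluted emulsifiable concentrate applied by dropper at 120 g a.i./10 ares immediately after sowing. Seeds (30 per species, 0–1 cm deep) in fertilized, puddled paddy soil kept under ~3 cm flood in a glass greenhouse.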

Scirpus juncoides [11] = assay: as above; conditions: Schoenoplectiella juncoides, soil, 336 h; 120 g active ingredient per 10 ares; applied immediately after sowing, flooded pots; 14 days after application; read-out: weed inhibition rate
How it was run: as §4

Digitaria ciliaris [12] = assay: Test Example 4: herbicidal effect test by stem and leaf treatment in upland field; conditions: Digitaria ciliaris; 120 g per 10 ares; sprayed seven days after sowing, upland soil; 14 days after application; read-out: weed inhibition rate
[13] = test system: Echinochloa crus-galli var. formosensis; assay: Test Example 5: herbicidal effect test by soil application in paddy rice (low dose); conditions: Echinochloa crus-galli, soil, 336 h; 7.5 g per 10 ares; applied immediately after sowing, flooded pots; 14 days after application; read-out: weed inhibition rate
How it was run: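 Paddy-soil pots, weeds sown 0–1 cm deep and flooded to about 3 cm in a greenhouse. Emulsifiable concentrate diluted in water and dropped in right after sowing at 7.5 g active ingredient per 10 ares. Duplicates; effect scored 14 days after application.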

[14] = test system: Echinochloa crus-galli var. formosensis; assay: Test Example 6: herbicidal effect test by application during growth period of paddy rice (low dose); conditions: Echinochloa crus-galli; 7.5 g per 10 ares; applied seven days after sowing, flooded pots; 14 days after application; read-out: weed inhibition rate
How it was run: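 Formulated compound, diluted in water, was dropped onto flooded pots seven days post-sowing at 7.5 g a.i. per 10 ares. Seeds had been sown 0-1 cm deep in puddled paddy soil under ~3 cm water in a glass greenhouse. Inhibition (%) assessed at 14 days; duplicate pots.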

CC(C)[C@]12C[C@@H](OCc3ccccn3)[C@](C)(C[C@@H]1Cl)O2 [1-658, 2-[[(1S,2R,4R,5S)-5-chloro-4-isopropyl-1-methyl-7-oxabicyclo[2.2.1]heptan-2-yl]oxymethyl]pyridine]
≥ 80%: inhibition at 1200 g/ha [1] | inhibition at 1200 g/ha (Scirpus juncoides [2]) | inhibition at 75 g/ha (Digitaria ciliaris [3]) | inhibition at 75 g/ha (Echinochloa crus-galli [4]) | inhibition at 1200 g/ha (Digitaria ciliaris [5]) | inhibition at 1200 g/ha (Echinochloa crus-galli [6]) | inhibition at 1200 g/ha (Echinochloa crus-galli [7]) | inhibition at 75 g/ha (Digitaria ciliaris [8]) | inhibition at 75 g/ha (Echinochloa crus-galli [9]) | pest or weed control at 1200 g/ha [10] | pest or weed control at 1200 g/ha (Scirpus juncoides [11]) | inhibition at 1200 g/ha (Digitaria ciliaris [12]) | inhibition at 75 g/ha [13] | inhibition at 75 g/ha [14]

CC(C)[C@]12C[C@@H](OCc3c(F)cccc3F)[C@](C)(C[C@@H]1Cl)O2 [1-14, (1R,2S,4S,5R)-2-chloro-5-[(2,6-difluorophenyl)methoxy]-1-isopropyl-4-methyl-7-oxabicyclo[2.2.1]heptane]
≥ 80%: inhibition at 1200 g/ha [1] | inhibition at 1200 g/ha (Scirpus juncoides [2]) | inhibition at 75 g/ha (Digitaria ciliaris [3]) | inhibition at 75 g/ha (Echinochloa crus-galli [4]) | inhibition at 1200 g/ha (Digitaria ciliaris [5]) | inhibition at 1200 g/ha (Echinochloa crus-galli [6]) | inhibition at 1200 g/ha (Echinochloa crus-galli [7]) | inhibition at 75 g/ha (Digitaria ciliaris [8]) | inhibition at 75 g/ha (Echinochloa crus-galli [9]) | pest or weed control at 1200 g/ha [10] | pest or weed control at 1200 g/ha (Scirpus juncoides [11]) | inhibition at 1200 g/ha (Digitaria ciliaris [12]) | inhibition at 75 g/ha [13] | inhibition at 75 g/ha [14]

CC(C)=CCO[C@@H]1C[C@@]2(C(C)C)C=C[C@]1(C)O2 [3-693, (1R,4S,5R)-1-isopropyl-4-methyl-5-(3-methylbut-2-enoxy)-7-oxabicyclo[2.2.1]hept-2-ene]
≥ 80%: inhibition at 1200 g/ha [1] | inhibition at 1200 g/ha (Scirpus juncoides [2]) | inhibition at 75 g/ha (Digitaria ciliaris [3]) | inhibition at 75 g/ha (Echinochloa crus-galli [4]) | inhibition at 1200 g/ha (Digitaria ciliaris [5]) | inhibition at 1200 g/ha (Echinochloa crus-galli [6]) | inhibition at 1200 g/ha (Echinochloa crus-galli [7]) | inhibition at 75 g/ha (Digitaria ciliaris [8]) | inhibition at 75 g/ha (Echinochloa crus-galli [9]) | pest or weed control at 1200 g/ha [10] | pest or weed control at 1200 g/ha (Scirpus juncoides [11]) | inhibition at 1200 g/ha (Digitaria ciliaris [12]) | inhibition at 75 g/ha [13] | inhibition at 75 g/ha [14]

CC(C)C12CC(OCc3c(Cl)cccc3Cl)C(C)(CC1Cl)O2 (stereo not shown) [1-1314, 5-chloro-2-[(2,6-dichlorophenyl)methoxy]-1-methyl-4-isopropyl-7-oxabicyclo[2.2.1]heptane]
≥ 80%: inhibition at 1200 g/ha [1] | inhibition at 1200 g/ha (Scirpus juncoides [2]) | inhibition at 75 g/ha (Digitaria ciliaris [3]) | inhibition at 75 g/ha (Echinochloa crus-galli [4]) | inhibition at 1200 g/ha (Digitaria ciliaris [5]) | inhibition at 1200 g/ha (Echinochloa crus-galli [6]) | inhibition at 1200 g/ha (Echinochloa crus-galli [7]) | inhibition at 75 g/ha (Digitaria ciliaris [8]) | inhibition at 75 g/ha (Echinochloa crus-galli [9]) | pest or weed control at 1200 g/ha [10] | pest or weed control at 1200 g/ha (Scirpus juncoides [11]) | inhibition at 1200 g/ha (Digitaria ciliaris [12]) | inhibition at 75 g/ha [13] | inhibition at 75 g/ha [14]

CC(C)C12CC(OCc3c(Cl)cccc3Cl)C(C)(CC1I)O2 (stereo not shown) [1-1447, 5-[(2,6-dichlorophenyl)methoxy]-2-iodo-1-isopropyl-4-methyl-7-oxabicyclo[2.2.1]heptane]
≥ 80%: inhibition at 1200 g/ha [1] | inhibition at 1200 g/ha (Scirpus juncoides [2]) | inhibition at 75 g/ha (Digitaria ciliaris [3]) | inhibition at 75 g/ha (Echinochloa crus-galli [4]) | inhibition at 1200 g/ha (Digitaria ciliaris [5]) | inhibition at 1200 g/ha (Echinochloa crus-galli [6]) | inhibition at 1200 g/ha (Echinochloa crus-galli [7]) | inhibition at 75 g/ha (Digitaria ciliaris [8]) | inhibition at 75 g/ha (Echinochloa crus-galli [9]) | pest or weed control at 1200 g/ha [10] | pest or weed control at 1200 g/ha (Scirpus juncoides [11]) | inhibition at 1200 g/ha (Digitaria ciliaris [12]) | inhibition at 75 g/ha [13] | inhibition at 75 g/ha [14]

CC(C)C12CC(OCc3ccccc3I)C(C)(CC1Cl)O2 (stereo not shown) [1-1298, 5-chloro-2-[(2-iodophenyl)methoxy]-1-methyl-4-isopropyl-7-oxabicyclo[2.2.1]heptane]
≥ 80%: inhibition at 1200 g/ha [1] | inhibition at 1200 g/ha (Scirpus juncoides [2]) | inhibition at 75 g/ha (Digitaria ciliaris [3]) | inhibition at 75 g/ha (Echinochloa crus-galli [4]) | inhibition at 1200 g/ha (Digitaria ciliaris [5]) | inhibition at 1200 g/ha (Echinochloa crus-galli [6]) | inhibition at 1200 g/ha (Echinochloa crus-galli [7]) | inhibition at 75 g/ha (Digitaria ciliaris [8]) | inhibition at 75 g/ha (Echinochloa crus-galli [9]) | pest or weed control at 1200 g/ha [10] | pest or weed control at 1200 g/ha (Scirpus juncoides [11]) | inhibition at 1200 g/ha (Digitaria ciliaris [12]) | inhibition at 75 g/ha [13] | inhibition at 75 g/ha [14]

CC(C)C12CC(OCc3ccccc3Br)C(C)(CC1Cl)O2 (stereo not shown) [1-1295, 2-[(2-bromophenyl)methoxy]-5-chloro-1-methyl-4-isopropyl-7-oxabicyclo[2.2.1]heptane]
≥ 80%: inhibition at 1200 g/ha [1] | inhibition at 1200 g/ha (Scirpus juncoides [2]) | inhibition at 75 g/ha (Digitaria ciliaris [3]) | inhibition at 75 g/ha (Echinochloa crus-galli [4]) | inhibition at 1200 g/ha (Digitaria ciliaris [5]) | inhibition at 1200 g/ha (Echinochloa crus-galli [6]) | inhibition at 1200 g/ha (Echinochloa crus-galli [7]) | inhibition at 75 g/ha (Digitaria ciliaris [8]) | inhibition at 75 g/ha (Echinochloa crus-galli [9]) | pest or weed control at 1200 g/ha [10] | pest or weed control at 1200 g/ha (Scirpus juncoides [11]) | inhibition at 1200 g/ha (Digitaria ciliaris [12]) | inhibition at 75 g/ha [13] | inhibition at 75 g/ha [14]

CC(C)[C@@]12C[C@H](OCc3c(F)cccc3F)[C@@](C)(C[C@H]1I)O2 [1-1119, (1R,2S,4S,5R)-2-[(2,6-difluorophenyl)methoxy]-5-iodo-1-methyl-4-isopropyl-7-oxabicyclo[2.2.1]heptane]
≥ 80%: inhibition at 1200 g/ha [1] | inhibition at 1200 g/ha (Scirpus juncoides [2]) | inhibition at 75 g/ha (Digitaria ciliaris [3]) | inhibition at 75 g/ha (Echinochloa crus-galli [4]) | inhibition at 1200 g/ha (Digitaria ciliaris [5]) | inhibition at 1200 g/ha (Echinochloa crus-galli [6]) | inhibition at 1200 g/ha (Echinochloa crus-galli [7]) | inhibition at 75 g/ha (Digitaria ciliaris [8]) | inhibition at 75 g/ha (Echinochloa crus-galli [9]) | pest or weed control at 1200 g/ha [10] | pest or weed control at 1200 g/ha (Scirpus juncoides [11]) | inhibition at 1200 g/ha (Digitaria ciliaris [12]) | inhibition at 75 g/ha [13] | inhibition at 75 g/ha [14]
